US20240228468A1, “N-(6-((OCTAHYDROCYCLOPENTA[C]PYRROL-5-YI)AMINO)PYRIDAZIN-3-YL)PHENYL)CARBOXAMIDE AND (6- ((OCTAHYDROCYCLOPENTA[C]PYRROL-5-YL)AMINO)PYRIDAZIN-3-YL)BENZAMIDE DERIVATIVES AS MACHR M4 ANTAGONISTS FOR THE TREATMENT OF NEURODEGENERATIVE DISORDERS” (Vanderbilt University, priority 2021, published 2024)

Molecular target: T1, Human M4 (Homo sapiens, UniProt P08173)
T1 construct: expressed in transfected cells; host or cells: CHO-K1 (ATCC), co-transfected with chimeric G protein Gqi5
T1 sequence (P08173 1-479): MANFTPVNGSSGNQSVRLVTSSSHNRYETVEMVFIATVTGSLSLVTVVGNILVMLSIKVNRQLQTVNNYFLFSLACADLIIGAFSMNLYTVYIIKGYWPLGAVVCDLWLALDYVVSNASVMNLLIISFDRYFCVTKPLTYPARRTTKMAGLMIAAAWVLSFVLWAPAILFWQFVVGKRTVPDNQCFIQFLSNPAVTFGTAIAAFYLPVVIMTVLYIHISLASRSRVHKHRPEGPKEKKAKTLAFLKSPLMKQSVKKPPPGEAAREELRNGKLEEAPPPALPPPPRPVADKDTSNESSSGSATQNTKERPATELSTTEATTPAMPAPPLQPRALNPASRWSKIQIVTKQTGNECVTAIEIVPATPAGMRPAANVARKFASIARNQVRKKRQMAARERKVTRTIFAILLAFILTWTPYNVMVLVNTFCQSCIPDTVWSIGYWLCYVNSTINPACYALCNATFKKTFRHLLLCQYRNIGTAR
Assay: mAChR M4 cell-based functional assay (calcium flux, antagonism of EC80 acetylcholine response)
Conditions: M4/Gqi5/CHO-K1 cells; for remaining activity at 30 µM / Human M4 Emin (% ACh maximum at 30 μM): % ACh maximum at 30 μM; for remaining activity at 30 µM: read-out: Human M4 Emin (% ACh maximum at 30 μM); for IC50: concentration-dependent decrease of the response elicited by an EC80 concentration of acetylcholine
Method in brief: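 CHO-K1 cells stably expressing human M4 with chimeric Gqi5, Fluo-4 loaded; calcium flux read on FDSS. Compound (10-point, 1:3 series) added first, then EC20 acetylcholine at 143 s and EC80 at 268 s. IC50 from concentration-dependent decrease of EC80 response, four-parameter logistic fit.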

Compound	remaining activity at 30 µM	IC50	Human M4 Emin (% ACh maximum at 30 μM)
[2H]C([2H])(C1CCOCC1)N1C[C@H]2C[C@H](Nc3ccc(-c4ccc(C(=O)NC)c(F)c4)nn3)C[C@H]2C1 [Compound A70, 2-fluoro-N-methyl-4-(6-(((3aR,5s,6aS)-2-((tetrahydro-2H-pyran-4-yl)methyl-d2)octahydrocyclopenta[c]pyrrol-5-yl)amino)pyridazin-3-yl)benzamide]	4%	0.0047 µM	–
[2H]C([2H])(C1CCOCC1)N1C[C@H]2C[C@H](Nc3ccc(-c4cc(F)cc(C(=O)NC)c4)nn3)C[C@H]2C1 [Compound A71, 3-Fluoro-N-methyl-5-(6-(((3aR,5s,6aS)-2-((tetrahydro-2H-pyran-4-yl)methyl-d2)octahydrocyclopenta[c]pyrrol-5-yl)amino)pyridazin-3-yl)benzamide]	4%	0.014 µM	–
[2H]C([2H])(C1CCOCC1)N1C[C@H]2C[C@H](Nc3ccc(-c4cccc(C(=O)NC(C)C)c4)nn3)C[C@H]2C1 [Compound A72, N-isopropyl-3-(6-(((3aR,5s,6aS)-2-((tetrahydro-2H-pyran-4-yl)methyl-d2)octahydrocyclopenta[c]pyrrol-5-yl)amino)pyridazin-3-yl)benzamide]	5%	0.028 µM	–
[2H]C([2H])(C1CCOCC1)N1C[C@H]2C[C@H](Nc3ccc(-c4ccc(F)c(C(=O)NC)c4)nn3)C[C@H]2C1 [Compound A73, 2-fluoro-N-methyl-5-(6-(((3aR,5s,6aS)-2-((tetrahydro-2H-pyran-4-yl)methyl-d2)octahydrocyclopenta[c]pyrrol-5-yl)amino)pyridazin-3-yl)benzamide]	7%	0.31 µM	–
[2H]C([2H])(C1CCOC(C)(C)C1)N1C[C@H]2C[C@H](Nc3ccc(-c4cccc(C(=O)NC)c4)nn3)C[C@H]2C1 (stereo partly drawn) [Compound A75, 3-(6-(((3aR,5s,6aS)-2-((2,2-dimethyltetrahydro-2H-pyran-4-yl)methyl-d2)octahydrocyclopenta[c]pyrrol-5-yl)amino)pyridazin-3-yl)-N-methylbenzamide]	3%	0.0034 µM	–
[2H]C([2H])(C1CC(C)(C)OC(C)(C)C1)N1C[C@H]2C[C@H](Nc3ccc(-c4cccc(C(=O)NC)c4)nn3)C[C@H]2C1 [Compound A76, N-methyl-3-(6-(((3aR,5s,6aS)-2-((2,2,6,6-tetramethyltetrahydro-2H-pyran-4-yl)methyl-d2)octahydrocyclopenta[c]pyrrol-5-yl)amino)pyridazin-3-yl)benzamide]	4%	0.099 µM	–
[2H]C([2H])([C@H]1COCCO1)N1C[C@H]2C[C@H](Nc3ccc(-c4cccc(C(=O)NC)c4)nn3)C[C@H]2C1 [Compound A77, 3-(6-(((3aR,5s,6aS)-2-(((S)-1,4-dioxan-2-yl)methyl-d2)octahydrocyclopenta[c]pyrrol-5-yl)amino)pyridazin-3-yl)-N-methylbenzamide]	4%	0.045 µM	–
[2H]C([2H])([C@H]1CCCOC1)N1C[C@H]2C[C@H](Nc3ccc(-c4cccc(C(=O)NC)c4)nn3)C[C@H]2C1 [Compound A78, N-methyl-3-(6-(((3aR,5s,6aS)-2-(((R)-tetrahydro-2H-pyran-3-yl)methyl-d2)octahydrocyclopenta[c]pyrrol-5-yl)amino)pyridazin-3-yl)benzamide]	8%	0.57 µM	–
[2H]C([2H])([C@@H]1CCCOC1)N1C[C@H]2C[C@H](Nc3ccc(-c4cccc(C(=O)NC)c4)nn3)C[C@H]2C1 [Compound A79, N-methyl-3-(6-(((3aR,5s,6aS)-2-(((S)-tetrahydro-2H-pyran-3-yl)methyl-d2)octahydrocyclopenta[c]pyrrol-5-yl)amino)pyridazin-3-yl)benzamide]	5%	0.092 µM	–
[2H]C([2H])([C@H]1CCCCO1)N1C[C@H]2C[C@H](Nc3ccc(-c4cccc(C(=O)NC)c4)nn3)C[C@H]2C1 [Compound A81, N-methyl-3-(6-(((3aR,5s,6aS)-2-(((R)-tetrahydro-2H-pyran-2-yl)methyl-d2)octahydrocyclopenta[c]pyrrol-5-yl)amino)pyridazin-3-yl)benzamide]	4%	0.00041 µM	–
[2H]C1([2H])CC(C([2H])([2H])N2C[C@H]3C[C@H](Nc4ccc(-c5cc(F)cc(C(=O)NC)c5)nn4)C[C@H]3C2)CC([2H])([2H])O1 [Compound A82, 3-fluoro-N-methyl-5-(6-(((3aR,5s,6aS)-2-((tetrahydro-2H-pyran-4-yl-2,2,6,6-d4)methyl-d2)octahydrocyclopenta[c]pyrrol-5-yl)amino)pyridazin-3-yl)benzamide]	5%	0.029 µM	–
[2H]C([2H])(C1CCOC(C)(C)C1)N1C[C@H]2C[C@H](Nc3ccc(-c4cc(F)cc(C(=O)NC)c4)nn3)C[C@H]2C1 (stereo partly drawn) [Compound A83, 3-(6-(((3aR,5s,6aS)-2-((2,2-dimethyltetrahydro-2H-pyran-4-yl)methyl-d2)octahydrocyclopenta[c]pyrrol-5-yl)amino)pyridazin-3-yl)-5-fluoro-N-methylbenzamide]	4%	0.0027 µM	–
[2H]C([2H])([C@H]1CCCOC1)N1C[C@H]2C[C@H](Nc3ccc(-c4cc(F)cc(C(=O)NC)c4)nn3)C[C@H]2C1 [Compound A84, 3-fluoro-N-methyl-5-(6-(((3aR,5s,6aS)-2-(((R)-tetrahydro-2H-pyran-3-yl)methyl-d2)octahydrocyclopenta[c]pyrrol-5-yl)amino)pyridazin-3-yl)benzamide]	6%	0.34 µM	–
[2H]C([2H])([C@@H]1CCCOC1)N1C[C@H]2C[C@H](Nc3ccc(-c4cc(F)cc(C(=O)NC)c4)nn3)C[C@H]2C1 [Compound A85, 3-fluoro-N-methyl-5-(6-(((3aR,5s,6aS)-2-(((S)-tetrahydro-2H-pyran-3-yl)methyl-d2)octahydrocyclopenta[c]pyrrol-5-yl)amino)pyridazin-3-yl)benzamide]	5%	0.084 µM	–
[2H]C([2H])([C@@H]1CCCCO1)N1C[C@H]2C[C@H](Nc3ccc(-c4cc(F)cc(C(=O)NC)c4)nn3)C[C@H]2C1 [Compound A86, 3-fluoro-N-methyl-5-(6-(((3aR,5s,6aS)-2-(((S)-tetrahydro-2H-pyran-2-yl)methyl-d2)octahydrocyclopenta[c]pyrrol-5-yl)amino)pyridazin-3-yl)benzamide]	4%	0.0027 µM	–
[2H]C([2H])([C@H]1CCCCO1)N1C[C@H]2C[C@H](Nc3ccc(-c4cc(F)cc(C(=O)NC)c4)nn3)C[C@H]2C1 [Compound A87, 3-fluoro-N-methyl-5-(6-(((3aR,5s,6aS)-2-(((R)-tetrahydro-2H-pyran-2-yl)methyl-d2)octahydrocyclopenta[c]pyrrol-5-yl)amino)pyridazin-3-yl)benzamide]	4%	0.0009 µM	–
[2H]C([2H])(C1CCOCC1)N1C[C@H]2C[C@H](Nc3ccc(-c4ccccc4NC(C)=O)nn3)C[C@H]2C1 [Compound B2, N-(2-(6-(((3aR,5s,6aS)-2-((tetrahydro-2H-pyran-4-yl)methyl-d2)octahydrocyclopenta [c]pyrrol-5-yl)amino)pyridazin-3-yl)phenyl)acetamide]	–	0.058 µM	3%
[2H]C([2H])([2H])C(=O)Nc1ccccc1-c1ccc(N[C@H]2C[C@@H]3CN(CC4CCOCC4)C[C@@H]3C2)nn1 [Compound B3, N-(2-(6-(((3aR,5s,6aS)-2-((tetrahydro-2H-pyran-4-yl)methyl)octahydrocyclopenta [c]pyrrol-5-yl)amino)pyridazin-3-yl)phenyl) acetamide-2,2,2-d3]	–	0.12 µM	4%
[2H]C([2H])([2H])C(=O)Nc1ccccc1-c1ccc(N[C@H]2C[C@@H]3CN(C([2H])([2H])C4CCOCC4)C[C@@H]3C2)nn1 [Compound B4, N-(2-(6-(((3aR,5s,6aS)-2-((tetrahydro-2H-pyran-4-yl)methyl-d2)octahydrocyclopenta [c]pyrrol-5-yl)amino)pyridazin-3-yl)phenyl) acetamide-2,2,2-d3]	–	0.12 µM	4%
N-methyl-3-(6-(((3aR,5s,6aS)-2-(((S)- tetrahydro-2H-pyran-2-yl)methyl- d2)octahydrocyclopenta[c]pyrrol-5- yl)amino)pyridazin-3-yl)benzamide [Compound A80]	–	0.0014 µM	4%
